pIC50: −log10 of the molar value.
Target: human h-PGDS (Homo sapiens, UniProt O60760)
Test: Enzyme Immunoassay (EIA) method, inhibition of hematopoietic PGD2 synthase
Type: biochemical
Conditions: EIA assay, PGD2 formed from PGH2 by human h-PGDS
Protocol: Assay 2: Enzyme Immunoassay (EIA) Method
• a. Preparation of 0.1M K2HPO4/KH2PO4 buffer (pH 7.4) • Prepare 0.1 M KH2PO4 from 1M KH2PO4 (Sigma, Cat# P-8709) • Prepare 0.1 M K2HPO4 from powder of K2HPO4 (Fisher, BP363-500) • Mix 0.1 M K2HPO4 with 0.1 M KH2PO4 to adjust pH to 7.4. • b. Preparation of 0.5% γ-globulin • Add 0.1 g of γ-globulin (Sigma, Cat# G-5009) to 20 mL 0.1 M K2HPO4/KH2PO4 buffer (pH 7.4) and make 1-mL/vial aliquots and store in −80° C. • c. Preparation of 100 mM GSH • Add 307 mg of GSH (Sigma, Cat# G-6529) to 10 mL 0.1 M K2HPO4/KH2PO4 buffer (pH 7.4) and store at −80° C. • d. Preparation of Reaction buffer: • 198 mL of 0.1M K2HPO4/KH2PO4 buffer (pH 7.4) • 2 mM GSH—Prepared from 100 mM GSH • 0.4 g Glycerol • 2 mL of 0.5% γ-globulin • Add 0.4 g of glycerol and 2 mL of 0.5% γ-globulin to 198 mL of 0.1 M K2HPO4/KH2PO4 • buffer (pH7.4). • Add 0.4 mL of 100 mM GSH to 19.6 mL reaction buffer before the assay (enough for two 96-well plates). • e. Preparation of FeCl2/citric acid stopping solution: (8 mg/mL FeCl2, 0.1 M citric acid) • Add 40 mg fresh FeCl2 (IGN, Cat# 158046) to 5 mL 0.1 M citric acid (Sigma, Cat# C0759). • f. Preparation of MOX reagent: • 10% EtOH—Add 1 mL of EtOH to 9 mL of ultra pure H2O • Dissolve 0.1 g of methoxyl amine (Cayman, Cat# 400036/) in 10% EtOH (10 mL). • Add 0.82 g of sodium acetate (Cayman, Cat#400037) to MOX solution and dissolve. II. Materials and Method • Dimethylsulfoxide (DMSO; Sigma; Cat# D2650) • Prostaglandin D2-MOX express EIA kit (Caymen Chemical, Catalog No. 500151)
Before the assay, cool down 10 mL of acetone in polypropylene tubes and empty 96 well plates in ice. All the procedures except compound dilution are performed on ice.
• 1. Dilute compound in DMSO
• 2. Dilute 2 μL of each above concentration of compound to 38 μL of reaction buffer in 96-well plates and mix. IV. Enzyme and Substrate Solution Preparation • 1 Preparation of 0.39 ng/μL enzyme solution (0.35 ng/μL at final after compound addition). • Mix 4 μL of 4 mg/mL human h-PGDS with 396 μL of reaction buffer (to give enzyme concentration 40 μg/mL). Add 46.8 μL of 40 μg/mL h-PGDS to 4.753 mL of reaction buffer to give a total volume of 4.8 mL • 2. Preparation of Substrate Solution (PGH2): Add 0.375 mL of 0.1 mg/mL of PGH2 to 1.625 mL acetone. V. Enzyme Reaction: • 1. Add 60 μL of enzyme solution to compound well and positive control (without compound) in U-bottom polypropylene plate on ice. • 2. Add 60 μL of reaction buffer and 6.6 μL of 5% DMSO in reaction buffer into negative control wells in the plate. • 3. Add 6.6 μL of diluted compound in reaction buffer to the compound wells and mix. • 4. Add 6.6 μL of 5% DMSO in reaction buffer to the positive control well. • 5. Incubate the plate in ice for at least 30 min. • 6. Add 20 μL of substrate (PGH2) solution to compound, negative and positive control wells in the U-bottom 96 well plate on ice. • 7. Dry the plate in cold room for about 25-28 min. • 8. Pipette 45 μL of enzyme solution (above) into 96-wells with dried PGH2 and mix 3 times. Incubate on the ice for 1 min. • 9. Add 45 μL of FeCl2 solution into each wells and mix. • 10. Add 90 μL of MOX solution and mix. • 11. Incubate for 30 min at 60° C. • 12. Dilute the samples 2500× with EIA buffer. VI. EIA Assay • Perform the assay according to the procedure in EIA kit provided by Cayman. Total PGD2 levels (pg/mL) were determined in the samples by EIA kits (Caymen Chemical, Catalog No. 500151) Calculate Amount of PGD2 as Below • Calculated % Positive control according to the equation below; % Positive control=(Compound value−Negative control)/(Positive value−Negative control value)×100. […]

Chain of human h-PGDS (O60760 whole entry): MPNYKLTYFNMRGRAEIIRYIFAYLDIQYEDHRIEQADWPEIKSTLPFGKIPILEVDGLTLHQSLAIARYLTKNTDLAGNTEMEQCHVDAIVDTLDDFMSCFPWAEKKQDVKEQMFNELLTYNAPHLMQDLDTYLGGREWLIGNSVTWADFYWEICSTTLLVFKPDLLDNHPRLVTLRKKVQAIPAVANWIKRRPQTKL

Row | Compound | pIC50
1 | Cc1nc(-c2cccc(F)c2)ncc1C(=O)NN(c1ccccc1)c1ccccc1 [Example 190, 2-(3-Fluoro-phenyl)-4-methyl-pyrimidine-5-carboxylic acid N′,N′-diphenyl-hydrazide] | 7.80
2 | CC1Cc2ccccc2N1NC(=O)c1cnc(-c2ccccc2)nc1 (stereo not shown) [Example 99, 2-Phenyl-pyrimidine-5-carboxylic acid (2-methyl-2,3-dihydro-indol-1-yl)-amide] | 8.40
3 | O=C(NN1CCN(C2CCOC2=O)CC1)c1cnc(-c2ccccc2)nc1 (stereo not shown) [Example 87, 2-Phenyl-pyrimidine-5-carboxylic acid [4-(2-oxo-tetrahydro-furan-3-yl)-piperazin-1-yl]-amide] | 7.59
4 | Cc1nc(-c2cccc(F)c2)ncc1C(=O)Nn1cc(C(N)=O)c2cc(F)ccc21 [Example 162, 5-Fluoro-1-{[2-(3-fluoro-phenyl)-4-methyl-pyrimidine-5-carbonyl]-amino}-1H-indole-3-carboxylic acid amide] | 8.10
5 | Cc1nc(-c2cccc(F)c2)ncc1C(=O)Nn1cc(-c2nnn[nH]2)c2cc(F)ccc21 [Example 42, 2-(3-Fluoro-phenyl)-4-methyl-pyrimidine-5-carboxylic acid [5-fluoro-3-(1H-tetrazol-5-yl)-indol-1-yl]-amide] | 8.30
6 | O=C(NN1CCc2ccccc21)c1cnc(-c2ccccc2)nc1 [Example 82, 2-Phenyl-pyrimidine-5-carboxylic acid (2,3-dihydro-indol-1-yl)-amide] | 8.70
7 | O=C(NN1CCN(CC(=O)N2CCOCC2)CC1)c1cnc(-c2ccccc2)nc1 [Example 90, 2-Phenyl-pyrimidine-5-carboxylic acid [4-(2-morpholin-4-yl-2-oxo-ethyl)-piperazin-1-yl]-amide] | 6.08
8 | O=C(Nn1ccc2ccccc21)c1cnc(-c2cccc(F)c2)nc1 [Example 105, 2-(3-Fluoro-phenyl)-pyrimidine-5-carboxylic acid indol-1-yl-amide] | 8.30
9 | Cc1nc(-c2ccccc2)ncc1C(=O)NN1CCc2ccccc21 [Example 95, 4-Methyl-2-phenyl-pyrimidine-5-carboxylic acid (2,3-dihydro-indol-1-yl)-amide] | 8.26
10 | O=C(NNc1ccccc1F)c1cnc(-c2ccccc2)nc1 [Example 45, 2-Phenyl-pyrimidine-5-carboxylic acid N′-(2-fluoro-phenyl)-hydrazide] | 7.92

The next lines start with the values.

Row | pIC50 | Compound
11 | 7.26 | O=C(NN1CCCCC1=O)c1cnc(-c2ccccc2)nc1 [Example 56, 2-Phenyl-pyrimidine-5-carboxylic acid N′-(2-oxo-piperidin-1-yl)-amide]
12 | 7.70 | O=C(NN1CC(CN2CCOCC2)OC1=O)c1cnc(-c2ccccc2)nc1 (stereo not shown) [Example 75, 2-Phenyl-pyrimidine-5-carboxylic acid (5-morpholin-4-ylmethyl-2-oxo-oxazolidin-3-yl)-amide]
13 | 7.74 | O=C(Nn1ccc2ncccc21)c1cnc(-c2cccc(F)c2)nc1 [Example 118, 2-(3-Fluoro-phenyl)-pyrimidine-5-carboxylic acid pyrrolo[3,2-b]pyridin-1-ylamide]
14 | 8.52 | O=C(NN1CCc2ccccc21)c1cnc(-c2cccc(F)c2)nc1 [Example 91, 2-(3-Fluoro-phenyl)-pyrimidine-5-carboxylic acid (2,3-dihydro-indol-1-yl)-amide]
15 | 7.68 | CC1=NNC(=O)N(NC(=O)c2cnc(-c3cccc(O)c3)nc2)C1 [Example 154, 2-(3-Hydroxy-phenyl)-pyrimidine-5-carboxylic acid (6-methyl-3-oxo-2,5-dihydro-3H-[1,2,4]triazin-4-yl)-amide]
16 | 6.83 | CN(NC(=O)c1cnc(-c2ccccc2)nc1)C1CCCCC1 [Example 57, 2-Phenyl-pyrimidine-5-carboxylic acid N′-cyclohexyl-N′-methyl-hydrazide]
17 | 6.64 | O=C(NN1CCOCC1)c1cnc(Oc2ccccc2)nc1 [Example 58, 2-Phenyoxy-pyrimidine-5-carboxylic acid N′-morpholin-4-yl-amide]
18 | 8.00 | Cc1cn(NC(=O)c2cnc(-c3cccnc3)nc2)c2ccc(F)cc12 [Example 6, 2-Pyridin-3-yl-pyrimidine-5-carboxylic acid (5-fluoro-3-methyl-indol-1-yl)-amide]
19 | 8.40 | CC1Cc2ccccc2N1NC(=O)c1cnc(-c2cccc(F)c2)nc1 (stereo not shown) [Example 100, 2-(3-Fluoro-phenyl)-pyrimidine-5-carboxylic acid (2-methyl-2,3-dihydro-indol-1-yl)-amide]

Test system: PGDS
Test: not given
Conditions: cited from earlier work

Row | Compound | PGDS inhibition
20 | c1ccc(C(OC2CCN(CCCc3nn[nH]n3)CC2)c2ccccc2)cc1 [HQL-79] | weak PGDS inhibitor

Test system: guinea pig
Test: not given
Conditions: guinea pig model; cited from earlier work

Row | Compound | antiasthmatic effect
21 | c1ccc(C(OC2CCN(CCCc3nn[nH]n3)CC2)c2ccccc2)cc1 [HQL-79] | antiasthmatic

Test system: rat
Test: not given
Conditions: rat model; cited from earlier work

Row | Compound | antiasthmatic effect
22 | c1ccc(C(OC2CCN(CCCc3nn[nH]n3)CC2)c2ccccc2)cc1 [HQL-79] | antiasthmatic
